Two compounds from ChEMBL document CHEMBL4507305, “Data for DCP probe TP-024” (2021) can be followed below.

Test [1] has as its target G-protein coupled receptor 52 (Homo sapiens, UniProt Q9Y2T5). The test can be described thus: CHO-based cAMP assay (human). In kind it is functional.
The subject of test [2] is Tyrosine-protein kinase ABL1 (Homo sapiens), P00519 [F317L]. The conditions noted are these: Compound concentration 1000.0 nM.
Test [3] has as its system Tyrosine-protein kinase ABL1 (Homo sapiens), P00519 [H396P]. As to conditions: Compound concentration 1000.0 nM.
Test [4] concerns Tyrosine-protein kinase ABL1 (Homo sapiens), P00519 [T315I]. The conditions noted are these: Compound concentration 1000.0 nM.
Test [5] concerns the target Casein kinase I isoform epsilon (Homo sapiens) (UniProt P49674). The conditions noted are these: Compound concentration 1000.0 nM.
The target in test [6] is Ephrin type-B receptor 4 (Homo sapiens) (UniProt P54760). The conditions noted are these: Compound concentration 1000.0 nM.
Test [7] addresses Mitogen-activated protein kinase 6 (Homo sapiens) (UniProt Q16659). The conditions noted are these: Compound concentration 1000.0 nM.
For test [8], the system named is Receptor-type tyrosine-protein kinase FLT3 (Homo sapiens), P36888 [D835Y]. As to conditions: Compound concentration 1000.0 nM.
In test [9] the target is Dual specificity mitogen-activated protein kinase kinase 2 (Homo sapiens) (UniProt P36507). As to conditions: Compound concentration 1000.0 nM.
For test [10], the target named is Mitogen-activated protein kinase kinase kinase 11 (Homo sapiens) (UniProt Q16584). The conditions noted are these: Compound concentration 1000.0 nM.
The target of test [11] is Serine/threonine-protein kinase Nek6 (Homo sapiens) (UniProt Q9HC98). As to conditions: Compound concentration 1000.0 nM.
Test [12] has as its target cAMP-dependent protein kinase catalytic subunit alpha (Homo sapiens) (UniProt P17612). The conditions noted are these: Compound concentration 1000.0 nM.
The target of test [13] is Dual specificity protein kinase TTK (Homo sapiens) (UniProt P33981). The conditions noted are these: Compound concentration 1000.0 nM.
The target of test [14] is Serine/threonine-protein kinase ULK2 (Homo sapiens) (UniProt Q8IYT8). The conditions noted are these: Compound concentration 1000.0 nM.
The target in test [15] is Phosphatidylinositol 3-kinase catalytic subunit type 3 (Homo sapiens) (UniProt Q8NEB9). The conditions noted are these: Compound concentration 1000.0 nM.
Test [16] addresses Serine/threonine-protein kinase WNK3 (Homo sapiens) (UniProt Q9BYP7). As to conditions: Compound concentration 1000.0 nM.
Test [17] addresses Histamine H2 receptor (Homo sapiens) (UniProt P25021). The conditions noted are these: Compound concentration 10.0 uM.
Test [18] deals with Alpha-2A adrenergic receptor (Homo sapiens) (UniProt P08913). As to conditions: Compound concentration 10.0 uM.
Test [19] has as its target Alpha-2B adrenergic receptor (Homo sapiens) (UniProt P18089). As to conditions: Compound concentration 10.0 uM.
The target in test [20] is T1, G protein-coupled receptor (Rattus norvegicus, UniProt Q9WU09). Description: CHO-based cAMP assay (rat). For orientation: cAMP levels reflect the balance of adenylyl cyclase and phosphodiesterase activity.
In test [21] the target is T1, G protein-coupled receptor. Description: cAMP increase in rat primary cultured striatal neurons.
The target in test [22] is Sodium-dependent dopamine transporter (Homo sapiens) (UniProt Q01959). As to conditions: Compound concentration 10.0 uM.
Test [23] concerns the target Muscarinic acetylcholine receptor M3 (Homo sapiens) (UniProt P20309). The conditions noted are these: Compound concentration 10.0 uM.

The source made the active and inactive calls. No cut-off for these calls is given here. Where only a bound is given, the exact number is not on record here.

Phosphatidylinositol 3-kinase catalytic subunit type 3 (Homo sapiens), sequence (Q8NEB9 whole entry): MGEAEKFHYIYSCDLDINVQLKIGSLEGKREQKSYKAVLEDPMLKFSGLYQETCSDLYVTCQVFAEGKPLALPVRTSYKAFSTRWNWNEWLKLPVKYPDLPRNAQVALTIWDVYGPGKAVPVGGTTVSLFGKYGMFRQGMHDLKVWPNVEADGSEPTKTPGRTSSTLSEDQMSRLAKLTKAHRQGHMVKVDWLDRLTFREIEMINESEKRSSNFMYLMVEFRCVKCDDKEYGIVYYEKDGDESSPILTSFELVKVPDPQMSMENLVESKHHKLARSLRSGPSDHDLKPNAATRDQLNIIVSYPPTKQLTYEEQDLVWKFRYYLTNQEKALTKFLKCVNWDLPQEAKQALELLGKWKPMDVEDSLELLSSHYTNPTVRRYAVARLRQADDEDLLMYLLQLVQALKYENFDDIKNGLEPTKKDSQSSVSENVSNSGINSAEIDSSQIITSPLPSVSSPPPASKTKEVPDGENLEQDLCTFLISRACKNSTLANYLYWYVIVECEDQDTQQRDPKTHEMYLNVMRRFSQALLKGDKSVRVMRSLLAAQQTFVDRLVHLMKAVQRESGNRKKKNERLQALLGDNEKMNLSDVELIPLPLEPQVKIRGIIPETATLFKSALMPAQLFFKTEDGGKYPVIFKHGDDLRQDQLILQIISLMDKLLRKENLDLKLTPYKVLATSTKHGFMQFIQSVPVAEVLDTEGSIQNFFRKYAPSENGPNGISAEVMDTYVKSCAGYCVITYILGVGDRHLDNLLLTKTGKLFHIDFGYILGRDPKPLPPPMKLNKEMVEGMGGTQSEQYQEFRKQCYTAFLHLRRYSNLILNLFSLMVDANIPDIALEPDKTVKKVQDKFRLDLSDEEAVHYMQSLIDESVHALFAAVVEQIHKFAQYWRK
Histamine H2 receptor (Homo sapiens), sequence (P25021 whole entry): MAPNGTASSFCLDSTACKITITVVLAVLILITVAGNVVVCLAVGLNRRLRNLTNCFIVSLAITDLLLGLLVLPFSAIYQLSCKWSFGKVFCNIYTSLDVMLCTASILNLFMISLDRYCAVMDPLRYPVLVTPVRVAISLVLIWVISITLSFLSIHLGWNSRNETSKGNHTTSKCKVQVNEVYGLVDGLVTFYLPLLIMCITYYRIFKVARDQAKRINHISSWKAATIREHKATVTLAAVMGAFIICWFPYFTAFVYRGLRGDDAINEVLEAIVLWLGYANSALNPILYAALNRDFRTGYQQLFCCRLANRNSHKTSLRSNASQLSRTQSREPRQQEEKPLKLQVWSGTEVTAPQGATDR
Serine/threonine-protein kinase ULK2 (Homo sapiens), sequence (Q8IYT8 whole entry): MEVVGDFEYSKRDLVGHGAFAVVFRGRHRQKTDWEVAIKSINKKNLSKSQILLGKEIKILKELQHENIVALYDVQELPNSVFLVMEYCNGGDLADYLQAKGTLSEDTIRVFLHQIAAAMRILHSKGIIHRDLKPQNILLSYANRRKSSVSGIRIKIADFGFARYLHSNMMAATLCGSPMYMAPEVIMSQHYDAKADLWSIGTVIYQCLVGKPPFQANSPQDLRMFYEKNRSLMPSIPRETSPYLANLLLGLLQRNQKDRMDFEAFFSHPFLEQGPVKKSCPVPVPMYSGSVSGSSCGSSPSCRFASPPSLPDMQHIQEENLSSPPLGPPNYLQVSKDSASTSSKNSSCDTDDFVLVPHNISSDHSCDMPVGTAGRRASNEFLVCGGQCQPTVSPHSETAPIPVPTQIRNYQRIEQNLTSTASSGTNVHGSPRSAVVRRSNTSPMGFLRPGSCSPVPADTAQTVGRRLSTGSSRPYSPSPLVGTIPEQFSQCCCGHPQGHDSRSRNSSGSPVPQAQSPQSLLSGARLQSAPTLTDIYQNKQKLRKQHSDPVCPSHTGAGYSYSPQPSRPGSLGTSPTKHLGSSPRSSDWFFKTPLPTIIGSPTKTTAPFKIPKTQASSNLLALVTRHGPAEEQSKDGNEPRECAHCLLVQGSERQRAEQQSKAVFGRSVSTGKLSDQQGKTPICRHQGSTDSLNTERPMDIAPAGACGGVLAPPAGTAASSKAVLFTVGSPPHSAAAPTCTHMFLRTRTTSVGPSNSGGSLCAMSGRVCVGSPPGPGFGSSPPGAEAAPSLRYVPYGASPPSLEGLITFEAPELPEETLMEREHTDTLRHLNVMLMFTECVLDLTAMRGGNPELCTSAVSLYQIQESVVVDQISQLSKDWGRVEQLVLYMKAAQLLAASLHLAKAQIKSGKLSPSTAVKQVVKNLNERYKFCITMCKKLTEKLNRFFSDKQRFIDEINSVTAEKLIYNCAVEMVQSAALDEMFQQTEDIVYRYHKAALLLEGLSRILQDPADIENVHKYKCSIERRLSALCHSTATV
Alpha-2B adrenergic receptor (Homo sapiens), sequence (P18089 whole entry): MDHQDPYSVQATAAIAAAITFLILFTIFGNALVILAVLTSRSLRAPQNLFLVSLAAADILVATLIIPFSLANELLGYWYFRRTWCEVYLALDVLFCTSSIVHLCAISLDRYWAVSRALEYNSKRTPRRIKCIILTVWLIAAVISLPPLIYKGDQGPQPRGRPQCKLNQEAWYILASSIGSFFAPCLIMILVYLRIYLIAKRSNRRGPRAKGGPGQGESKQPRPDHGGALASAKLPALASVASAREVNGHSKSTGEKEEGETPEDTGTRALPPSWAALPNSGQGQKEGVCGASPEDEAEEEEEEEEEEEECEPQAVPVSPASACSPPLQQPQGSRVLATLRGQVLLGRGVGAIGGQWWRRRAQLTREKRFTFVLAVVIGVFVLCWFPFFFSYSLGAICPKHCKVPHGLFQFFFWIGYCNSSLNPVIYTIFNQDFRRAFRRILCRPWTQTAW
Dual specificity mitogen-activated protein kinase kinase 2 (Homo sapiens), sequence (P36507 whole entry): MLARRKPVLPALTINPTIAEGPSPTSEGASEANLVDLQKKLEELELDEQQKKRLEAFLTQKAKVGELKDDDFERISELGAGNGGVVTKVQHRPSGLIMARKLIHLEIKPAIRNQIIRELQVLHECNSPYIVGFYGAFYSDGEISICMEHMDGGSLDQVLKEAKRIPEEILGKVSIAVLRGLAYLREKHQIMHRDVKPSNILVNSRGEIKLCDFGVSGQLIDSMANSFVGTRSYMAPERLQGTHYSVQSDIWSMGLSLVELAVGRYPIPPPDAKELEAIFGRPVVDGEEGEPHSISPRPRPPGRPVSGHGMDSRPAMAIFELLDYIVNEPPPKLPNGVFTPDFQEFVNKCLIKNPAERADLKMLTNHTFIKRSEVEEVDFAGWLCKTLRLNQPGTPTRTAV
Casein kinase I isoform epsilon (Homo sapiens), sequence (P49674 whole entry, looked up, canonical isoform): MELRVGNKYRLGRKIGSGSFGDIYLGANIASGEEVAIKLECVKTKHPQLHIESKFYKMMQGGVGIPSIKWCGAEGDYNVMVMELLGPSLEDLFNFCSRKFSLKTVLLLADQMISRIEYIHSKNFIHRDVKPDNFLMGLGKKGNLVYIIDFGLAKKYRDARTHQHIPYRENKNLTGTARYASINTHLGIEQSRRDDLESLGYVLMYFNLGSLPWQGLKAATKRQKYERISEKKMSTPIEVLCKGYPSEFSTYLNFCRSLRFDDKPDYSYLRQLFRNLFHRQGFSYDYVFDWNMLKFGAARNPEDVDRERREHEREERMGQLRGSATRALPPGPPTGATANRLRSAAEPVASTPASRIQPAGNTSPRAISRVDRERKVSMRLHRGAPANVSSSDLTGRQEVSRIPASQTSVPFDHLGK
Mitogen-activated protein kinase 6 (Homo sapiens), sequence (Q16659 whole entry): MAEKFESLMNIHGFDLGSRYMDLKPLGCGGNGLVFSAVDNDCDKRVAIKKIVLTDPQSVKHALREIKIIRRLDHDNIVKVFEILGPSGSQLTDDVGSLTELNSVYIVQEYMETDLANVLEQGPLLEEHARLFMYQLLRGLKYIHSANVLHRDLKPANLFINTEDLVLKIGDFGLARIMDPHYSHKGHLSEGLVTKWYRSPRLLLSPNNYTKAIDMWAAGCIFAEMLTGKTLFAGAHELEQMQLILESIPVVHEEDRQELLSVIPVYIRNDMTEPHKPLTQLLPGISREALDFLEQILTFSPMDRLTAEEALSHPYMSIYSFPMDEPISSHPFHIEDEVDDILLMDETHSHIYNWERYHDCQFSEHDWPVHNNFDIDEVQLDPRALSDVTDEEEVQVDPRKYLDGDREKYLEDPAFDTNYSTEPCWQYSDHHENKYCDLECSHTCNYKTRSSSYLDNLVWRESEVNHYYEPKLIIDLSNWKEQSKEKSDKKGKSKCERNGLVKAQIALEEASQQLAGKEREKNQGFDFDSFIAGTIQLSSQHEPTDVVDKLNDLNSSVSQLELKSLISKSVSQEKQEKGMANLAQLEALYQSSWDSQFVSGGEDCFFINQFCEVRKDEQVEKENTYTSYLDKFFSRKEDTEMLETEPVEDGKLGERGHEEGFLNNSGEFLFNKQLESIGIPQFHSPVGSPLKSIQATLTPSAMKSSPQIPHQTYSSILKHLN
Alpha-2A adrenergic receptor (Homo sapiens), sequence (P08913 whole entry): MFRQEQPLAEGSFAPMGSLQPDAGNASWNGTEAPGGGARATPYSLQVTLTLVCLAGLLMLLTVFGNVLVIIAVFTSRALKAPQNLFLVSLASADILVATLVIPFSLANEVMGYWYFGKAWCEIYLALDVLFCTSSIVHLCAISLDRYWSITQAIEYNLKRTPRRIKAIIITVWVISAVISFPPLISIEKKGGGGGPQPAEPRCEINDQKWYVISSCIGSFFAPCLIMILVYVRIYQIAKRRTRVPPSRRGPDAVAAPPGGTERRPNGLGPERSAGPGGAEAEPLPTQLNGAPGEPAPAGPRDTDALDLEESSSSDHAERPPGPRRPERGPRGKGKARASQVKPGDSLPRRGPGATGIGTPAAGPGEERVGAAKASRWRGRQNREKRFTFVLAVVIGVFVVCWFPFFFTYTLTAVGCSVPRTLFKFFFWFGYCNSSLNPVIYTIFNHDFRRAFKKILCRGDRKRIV

As usually defined, the EC50 is the concentration at which the effect is half-maximal. A word on the inhibition: it is the relative decrease from the control value, in per cent. As for `Cc1nc(Cc2cccc(C(F)(F)F)c2)sc1-c1ccc(C(N)=O)nc1` [TP-024n], in test [1], the EC50 was > 1000 nM (not active). In addition, the residual activity was 93% in [2]; 87% in [3]; 100% in test [4]; 100% in [5]; 100% in [6]; 100% in test [7]. Further, the residual activity in [8] is 92%; in [9], 98%; in test [10], 100%; in test [11], 90%; in test [12], 75%; in test [13] it was 82%. Besides, the residual activity in test [14] is 100%; in [15], 100%; in test [16], 61%. The inhibition in test [17] was 6.05%; in test [18], 4.44%; in test [19], 5.89%.
As to `Cc1cc(-n2nc(Cc3cc(F)cc(C(F)(F)F)c3)nc2C)ccc1C(N)=O` [TP-024], the figures for the EC50 in [20] and in test [21] were 134 nM (active) and 151 nM (active), respectively. Moreover, the residual activity in test [2] is 100%; in [3], 97%; in test [4], 100%; in test [5], 100%; in [6] it was 100%; in test [7] it was 100%. The residual activity in test [8] was 100%; in test [9] it was 100%; in [10], 84%; in test [11] it was 95%; in [12], 100%; in test [13], 90%. For the same compound, the residual activity in test [14], in test [15] and in [16] was 100% in each case. The inhibition is 7.33% in test [22]; 6.28% in test [17]; 8.93% in [18]; 10.1% in [19]; 1.72% in test [23].
